From patent US20080039392A1, “CRAC channel and modulator screening methods” (THE REGENTS OF THE UNIVERSITY OF CALIFORNIA, priority 2006, published 2008)
Entries after “also recorded” stand apart in the source; their conditions may differ.

Tests used:
E180D Orai mutant + Stim = target: T1, E180D Orai mutant + Stim (Drosophila melanogaster, UniProt Q9U6B8, E178D); assay: Whole-cell recording of E180D Orai-induced CRAC current in S2 cells; assay type: cell-based; conditions: for effect of divalent cation on E180D Orai-induced current: 20 mM external divalent vs 2 mM Ca2+; for IC50: scaled to current in divalent-free solution
T1 construct: A cDNA clone, pAc5.1/olf186-F, encoding full-length Drosophila olf186-F-RB; expressed in transfected cells; host or cells: Drosophila S2 cells (Invitrogen)
Source text: (§1) Generation of pAc5.1/EGFP, pAc5.1/D-STIM, pAc5.1/D-STIM-V5-His and pAc5.1/olf186-F (GenBank accession number DQ503470) were as described^5. olf186-F pore mutants were made by exchanging the corresponding codons (E180A: GAG to GCG; E180D: GAG to GAC; D184A: GAT to GCT; D186A: GAT to GCT; N188A: AAT to GCT; FIG. 14) using the QuikChange site-directed mutagenesis kit (Stratagene). The pAc5.1/HA-olf186-F clone was made by adding the HA tag via PCR and re-cloned into the XhoI and NotI sites of pAc5.1/V5-His B expression vector. Resulting clones were confirmed by sequencing. Description of the primers and conditions for cloning is available upon request. Both HA-olf186-F and Stim-V5-His were verified for normal function by whole-cell recording.
(§2) Cells transfected (Amaxa) with Orai and Stim constructs were identified by fluorescence of co-transfected GFP. Patch clamp experiments were performed at room temperature in the standard whole-cell recording, using conditions similar to those reported previously^10. The membrane capacitance of S2 cells selected for recording was 11.6±0.4 pF (n=131 cells). Membrane potentials were corrected for a liquid junction potential of 10 mV between the pipette and bath solution. The series resistance (2-7 MΩ) was not compensated. The membrane potential was held at −10 mV, and 220-ms voltage ramps from −130 to 90 mV alternating with 220-ms pulses to −130 mV were delivered every 2 s. Only cells with high input (>2 GΩ) were selected for recording. External and pipette solution recipes are listed in supplementary table 1. Analyzed data are presented as mean ±SEM.
(§3) Data were analyzed by Pulse (Heka Electronics) and Origin (OriginLab Corp.). Five I-V curves were averaged for display. […] Since almost all S2 cells at the moment of break-in display an outward current that disappears during perfusion with internal solution (but before the inward CRAC current starts to develop), the following procedure for leak subtraction was employed. The first three ramp currents after the outward current subsided were averaged (Imid). Then, another set of three ramps after maximal inward CRAC current had developed were averaged (Imax). The difference between Imax and Imid represents an isolated CRAC current but with amplitude less than the actual one. To correct this the difference was scaled such that the value of current at −130 mV is equal to maximal inward current minus initial inward current. Then the scaled difference was subtracted from Imax followed by fitting with a polynomial function. This fit was considered as the basal leak current. […] In this case a linear I-V curve reversing at 0 mV with current magnitude at +90 mV equal to the sustained outward current was assigned as leak current. For E180D Orai-induced CRAC current, the initial current was considered as leak.

[1] = tested on: CRAC current in olf186-F+Stim transfected S2 cells; assay: Whole-cell recording of CRAC current in S2 cells co-transfected with olf186-F (WT Orai) + Stim; assay type: cell-based, Drosophila; conditions: for CRAC current density: at −130 mV, high-Ca2+ pipette solution, 10 μM IP3 in pipette or TG in bath
Method: Whole-cell recording. Patch-clamp experiments were performed at room temperature in the standard whole-cell recording configuration. The membrane capacitance (a measure of cell surface area) of S2 cells selected for recording was 9.15±0.27 pF (mean ±SEM, n=287 cells, 22 experiments). To calculate current densities, peak current amplitudes were divided by membrane capacitance for each cell.
as §2, §3

[2] = target: T2, D184A, D186A, N188A Orai mutants + Stim (Drosophila melanogaster, UniProt Q9U6B8, N186A); assay: Whole-cell recording of CRAC current of charge-neutralizing Orai mutants, block by Gd3+; assay type: cell-based; conditions: N188A Orai
T2 construct: A cDNA clone, pAc5.1/olf186-F, encoding full-length Drosophila olf186-F-RB; expressed in transfected cells; host or cells: Drosophila S2 cells (Invitrogen)
Source text: as §1, §2

[3] = target: T3, D184A, D186A, N188A Orai mutants + Stim (Drosophila melanogaster, UniProt Q9U6B8, D184A); assay: as above; assay type: cell-based; conditions: D186A Orai
T3 construct: A cDNA clone, pAc5.1/olf186-F, encoding full-length Drosophila olf186-F-RB; expressed in transfected cells; host or cells: Drosophila S2 cells (Invitrogen)
Source text: as §1, §2

[4] = target: T4, D184A, D186A, N188A Orai mutants + Stim (Drosophila melanogaster, UniProt Q9U6B8, D182A); assay: as above; assay type: cell-based; conditions: D184A Orai
T4 construct: A cDNA clone, pAc5.1/olf186-F, encoding full-length Drosophila olf186-F-RB; expressed in transfected cells; host or cells: Drosophila S2 cells (Invitrogen)
Source text: as §1, §2

Drosophila S2 cells = assay: Single-cell ratiometric fura-2 [Ca2+]i imaging; assay type: cell-based; conditions: ionomycin in zero-Ca2+ solution, control cells
Method: RNAi in Drosophila S2 cells. RNAi experiments were adapted from the protocols described by Worby et al. (2). Drosophila S2 cells (0.5×10^6) were seeded in T-25 flasks in 2 ml of complete S2 media. The next day, media was removed and replaced with 2 ml serum-free S2 media. 20 μg dsRNA was added and cells were incubated at room temperate for 45 min with gentle rocking. 4 ml S2 media was added and cells were incubated for 5 days at 24° C. Cells were then harvested and either plated for single cell Ca^2+ imaging and patch-clamp experiments or processed for RT-PCR analysis.
Single-cell [Ca2+]i imaging. Ratiometric [Ca2+]i imaging was performed as described, using solution recipes described in Table 3. Transfected cells were recognized by co-expressed enhanced green fluorescent protein (EGFP), using filters to avoid contamination of Fura-2 fluorescence by bleed-through of GFP fluorescence. Data were analysed with Metafluor software (Universal Imaging) and OriginPro 7.5 software (OriginLab) and are expressed as means ±SEM.

[5] = tested on: Stim-Orai protein interaction; assay: Co-immunoprecipitation of Stim and Orai; assay type: cell-based, Drosophila; conditions: Ca2+ store depletion, 1 μM TG 15 min
Method: Two days after transfection, 5×10^6 cells were treated with either Ringer or zero-Ca^2+ Ringer+1 μM TG using solutions described^6 for 15 min at room temperature. Cells transfected with Stim-V5-His only or HA-olf186-F only were used as controls. Cell extracts were then prepared using RIPA lysis buffer (Upstate) according to manufacturer instructions. The extracts were pre-cleared with protein A/G beads (Pierce) and protein concentration was determined, using the Pierce BCA Protein Reagent Kit. The cell lysate was then diluted to approximately 1 mg/ml total protein with PBS and mixed with either anti-HA monoclonal antibodies (1 μg/100 μg total protein, Santa Cruz) or anti-V5 monoclonal antibodies (1 μg/100 μg total protein, Invitrogen) for 4 hr at 4° C. Equal amount of samples were mixed with either normal mouse IgG or vehicle as negative controls. Protein A/G beads were subsequently added (1 μl/1 μg IgG) to rock overnight at 4° C. Proteins were eluted by boiling in 4× sample buffer (Invitrogen). Samples were resolved by SDS-PAGE and analyzed by standard western blotting techniques. Anti-HA monoclonal antibodies (Santa Cruz) were used at a dilution of 1:200. Anti-V5 monoclonal antibodies (Invitrogen) were used at a dilution of 1:2500. Proteins were detected by developing with the SuperSignal (Pierce) detection system.

T1 sequence (Q9U6B8 whole entry E178D): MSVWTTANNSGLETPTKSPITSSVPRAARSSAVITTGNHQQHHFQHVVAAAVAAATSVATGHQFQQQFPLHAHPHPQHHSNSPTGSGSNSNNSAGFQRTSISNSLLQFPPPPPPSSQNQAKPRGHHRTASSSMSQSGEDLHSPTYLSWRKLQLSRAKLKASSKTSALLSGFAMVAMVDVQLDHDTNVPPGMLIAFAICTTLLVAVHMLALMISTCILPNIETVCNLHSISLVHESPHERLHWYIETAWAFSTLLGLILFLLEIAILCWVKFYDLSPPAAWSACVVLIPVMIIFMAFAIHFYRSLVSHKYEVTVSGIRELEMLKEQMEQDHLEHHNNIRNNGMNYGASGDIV
T1 sequence (P83094 24-570, further chain): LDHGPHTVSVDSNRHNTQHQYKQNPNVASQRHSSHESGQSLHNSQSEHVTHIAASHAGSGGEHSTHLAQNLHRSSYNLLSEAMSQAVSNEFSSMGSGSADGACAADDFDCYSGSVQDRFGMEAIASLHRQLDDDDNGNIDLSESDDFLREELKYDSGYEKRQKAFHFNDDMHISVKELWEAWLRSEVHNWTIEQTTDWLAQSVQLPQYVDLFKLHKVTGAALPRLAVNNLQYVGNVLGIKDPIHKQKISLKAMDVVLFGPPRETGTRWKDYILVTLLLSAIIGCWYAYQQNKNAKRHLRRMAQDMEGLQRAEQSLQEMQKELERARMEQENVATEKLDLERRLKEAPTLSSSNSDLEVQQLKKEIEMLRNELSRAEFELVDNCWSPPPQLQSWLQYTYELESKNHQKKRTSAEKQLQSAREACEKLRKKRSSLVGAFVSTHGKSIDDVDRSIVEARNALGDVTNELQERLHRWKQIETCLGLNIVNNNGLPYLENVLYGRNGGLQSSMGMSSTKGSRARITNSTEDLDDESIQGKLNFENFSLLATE
T4 sequence (P83094 24-570): as the sequence (P83094 24-570, further chain) above
T4 sequence (Q9U6B8 whole entry D182A): as the sequence (Q9U6B8 whole entry E178D) above, with D178E, D182A counted along it
T3 sequence (P83094 24-570): as the sequence (P83094 24-570, further chain) above
T3 sequence (Q9U6B8 whole entry D184A): as the sequence (Q9U6B8 whole entry E178D) above, with D178E, D184A counted along it
T2 sequence (P83094 24-570): as the sequence (P83094 24-570, further chain) above
T2 sequence (Q9U6B8 whole entry N186A): as the sequence (Q9U6B8 whole entry E178D) above, with D178E, N186A counted along it

SMILES: NCCOB(c1ccccc1)c1ccccc1 [2-APB, 2-aminoethyldiphenyl borate]
- time course of E180D outward CRAC current (E180D Orai mutant + Stim; 5 μM): immediate decrease preceding potentiation
- time course of E180D outward CRAC current (E180D Orai mutant + Stim; 20 μM): immediate increase preceding inhibition
- effect on Ca2+ (CRAC) current ([1]; 5 μM): characteristic potentiation of current before blocking; also recorded: potentiated
- effect on Ca2+ (CRAC) current ([1]; 20 μM): blocked; also recorded: inhibited

SMILES: [Ba+2] [Ba^2+]
- effect of divalent cation on E180D Orai-induced current (E180D Orai mutant + Stim): significantly increased the inward current while decreasing the outward current

SMILES: [Ca+2] [Ca^2+]
- effect of divalent cation on E180D Orai-induced current (E180D Orai mutant + Stim): significantly decreased the outward current
- IC50 (E180D Orai mutant + Stim; IC50, half-blocking Ca2+ concentration for inward current, at −130 mV): 48 ± 13 µM
- IC50 (E180D Orai mutant + Stim; IC50, half-blocking Ca2+ concentration for outward current, at 90 mV): 2050 ± 780 µM

SMILES: [Gd+3] [Gd^3+]
- potency of Gd3+ block [2]: to a lesser degree
- potency of Gd3+ block [3]: significantly reduced
- potency of Gd3+ block [4]: significantly reduced
- suppression of native and WT Orai-induced CRAC current [1]: very effectively suppresses
- effect on enhanced Ca2+ current ([1]; 50 nM): blocked

SMILES: O=P(O)(O)O[C@@H]1[C@H](O)[C@H](O)[C@@H](OP(=O)(O)O)[C@H](OP(=O)(O)O)[C@H]1O [IP3, inositol 1,4,5-trisphosphate]
- CRAC current density [1]: −11.4±3.1 pA/pF

SMILES: [Mg+2] [Mg^2+]
- effect of divalent cation on E180D Orai-induced current (E180D Orai mutant + Stim): increased the current

SMILES: [Sr+2] [Sr^2+]
- effect of divalent cation on E180D Orai-induced current (E180D Orai mutant + Stim): had little effect

SMILES: C[C@H](CCC(=O)O)C[C@H](C)C[C@H](C)C(=O)/C=C(\O)[C@H](C)C[C@H](C)C/C=C/[C@@H](C)[C@@H](O)[C@@H](C)[C@@H](O)C[C@@H]1CC[C@@](C)([C@H]2CC[C@@](C)([C@@H](C)O)O2)O1 [ionomycin]
- peak of Ca2+ release transient (Drosophila S2 cells): ~200 nM

SMILES: C/C=C(/C)C(=O)O[C@H]1C(C)=C2[C@H]([C@@H]1OC(=O)CCCCCCC)[C@@](C)(OC(C)=O)C[C@H](OC(=O)CCC)[C@@]1(O)[C@H]2OC(=O)[C@@]1(C)O [thapsigargin]
- CRAC current density [1]: −7.6±2.5 pA/pF
- Stim-Orai protein interaction (co-immunoprecipitation) [5]: dramatically increased
